Residues, ends and D or L forms follow the SMILES beside them. *: point of attachment. X17 = C[C@@H](COC(=O)N1CCC[C@@H](c2ccc(-n3cc4cccc(C(N)=O)c4n3)cc2)C1)S*; X26 = C[C@H](COC(=O)N1CCC[C@@H](c2ccc(-n3cc4cccc(C(N)=O)c4n3)cc2)C1)S*; X21 = NC(=O)c1cccc2cn(-c3ccc([C@@H]4CCCN(C(=O)OCCS*)C4)cc3)nc12

For orientation: IC50 means the concentration needed to halve the response being measured.

The target of this assay is PARP (Homo sapiens, UniProt P09874). The assay is described as follows: Enzymatic Assay 2: HT Universal Chemiluminescent PARP Assay of cleaved compounds.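 Also: PARP reaction with activated DNA run 1 h at room temperature, product detected via streptavidin-HRP and luminescence endpoint reading on a plate reader.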 The note with it: read-out: IC50 Enzymatic Assay 2; Examples cleaved per Example A (crude cleavage solution); R^8H starting materials as such.
PARP, sequence (P09874 whole entry): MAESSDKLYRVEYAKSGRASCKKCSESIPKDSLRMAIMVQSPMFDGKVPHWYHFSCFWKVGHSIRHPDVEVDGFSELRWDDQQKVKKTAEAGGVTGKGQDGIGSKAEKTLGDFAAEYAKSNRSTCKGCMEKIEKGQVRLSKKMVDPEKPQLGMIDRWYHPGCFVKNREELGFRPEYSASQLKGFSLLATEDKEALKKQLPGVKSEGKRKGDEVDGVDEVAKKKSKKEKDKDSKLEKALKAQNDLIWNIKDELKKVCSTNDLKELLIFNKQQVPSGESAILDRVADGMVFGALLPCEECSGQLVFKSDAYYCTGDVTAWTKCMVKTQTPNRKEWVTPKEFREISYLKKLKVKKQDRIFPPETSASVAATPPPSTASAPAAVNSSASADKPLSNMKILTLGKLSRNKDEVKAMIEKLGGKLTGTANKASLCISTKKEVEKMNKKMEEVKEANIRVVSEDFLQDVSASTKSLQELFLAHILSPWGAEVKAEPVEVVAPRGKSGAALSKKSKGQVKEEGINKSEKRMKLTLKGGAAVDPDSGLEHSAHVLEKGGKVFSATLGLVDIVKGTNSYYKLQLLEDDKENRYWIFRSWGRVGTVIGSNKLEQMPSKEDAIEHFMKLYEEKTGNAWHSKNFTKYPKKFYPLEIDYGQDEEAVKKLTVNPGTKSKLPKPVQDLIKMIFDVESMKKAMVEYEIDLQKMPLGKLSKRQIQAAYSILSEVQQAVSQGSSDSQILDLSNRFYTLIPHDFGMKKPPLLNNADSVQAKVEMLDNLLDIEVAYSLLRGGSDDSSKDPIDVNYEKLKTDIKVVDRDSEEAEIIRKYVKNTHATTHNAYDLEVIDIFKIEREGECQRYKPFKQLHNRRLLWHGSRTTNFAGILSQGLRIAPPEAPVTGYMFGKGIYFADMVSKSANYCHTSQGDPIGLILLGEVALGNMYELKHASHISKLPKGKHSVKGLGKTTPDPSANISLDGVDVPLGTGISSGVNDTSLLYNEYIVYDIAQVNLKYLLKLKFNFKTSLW
Turning to `CC[C@H](C)[C@H](NC(=O)[C@@H]1CCCN1C(=O)[C@H](CC(N)=O)NC(=O)[C@H](CCC(N)=O)NC(=O)[C@H](CCC(=O)O)NC(=O)[C@H](C)N)C(=O)N[C@@H](Cc1ccc(O)cc1)C(=O)N[C@@H](Cc1c[nH]c2ccccc12)C(=O)N[C@@H](C)C(=O)N[C@@H](CCCNC(=N)N)C(=O)N[C@@H](Cc1ccc(O)cc1)C(=O)N[C@@H](C)C(=O)N[C@@H](CC(=O)O)C(=O)N[C@@H](Cc1c[nH]c2ccccc12)C(=O)N[C@@H](CC(C)C)C(=O)N[C@@H](Cc1ccccc1)C(=O)N[C@H](C(=O)N[C@H](C(=O)N1CCC[C@H]1C(=O)N[C@@H](CC(C)C)C(=O)N[C@@H](CC(C)C)C(=O)N[C@@H](CC(C)C)C(=O)N[C@@H](CC(C)C)C(=O)N[C@@H](CC(=O)O)C(=O)N[C@@H](CC(C)C)C(=O)N[C@@H](C)C(=O)N[C@@H](CC(C)C)C(=O)N[C@@H](CC(C)C)C(=O)N[C@H](C(=O)N[C@@H](CC(=O)O)C(=O)N[C@@H](C)C(=O)N[C@@H](CC(=O)O)C(=O)N[C@@H](CCC(=O)O)C(=O)N[C@@H](CSS[C@H](C)COC(=O)N1CCC[C@@H](c2ccc(-n3cc4cccc(C(N)=O)c4n3)cc2)C1)C(=O)NCC(=O)O)C(C)C)[C@@H](C)O)[C@@H](C)O` [Example 47] (H-AEQNPIYWARYADWLFTTPLLLLDLALLVDADEC(X26)G-OH; N-terminus and C-terminus assumed), the IC50 worked out at 2.4 nM.
As for `CC[C@H](C)[C@H](NC(=O)[C@@H]1CCCN1C(=O)[C@H](CC(N)=O)NC(=O)[C@H](CCC(N)=O)NC(=O)[C@H](CCC(=O)O)NC(=O)[C@H](C)N)C(=O)N[C@@H](Cc1ccc(O)cc1)C(=O)N[C@@H](Cc1c[nH]c2ccccc12)C(=O)N[C@@H](C)C(=O)N[C@@H](CCCNC(=N)N)C(=O)N[C@@H](Cc1ccc(O)cc1)C(=O)N[C@@H](C)C(=O)N[C@@H](CC(=O)O)C(=O)N[C@@H](Cc1c[nH]c2ccccc12)C(=O)N[C@@H](CC(C)C)C(=O)N[C@@H](Cc1ccccc1)C(=O)N[C@H](C(=O)N[C@H](C(=O)N1CCC[C@H]1C(=O)N[C@@H](CC(C)C)C(=O)N[C@@H](CC(C)C)C(=O)N[C@@H](CC(C)C)C(=O)N[C@@H](CC(C)C)C(=O)N[C@@H](CC(=O)O)C(=O)N[C@@H](CC(C)C)C(=O)N[C@@H](C)C(=O)N[C@@H](CC(C)C)C(=O)N[C@@H](CC(C)C)C(=O)N[C@H](C(=O)N[C@@H](CC(=O)O)C(=O)N[C@@H](C)C(=O)N[C@@H](CC(=O)O)C(=O)N[C@@H](CCC(=O)O)C(=O)N[C@@H](CSS[C@@H](C)COC(=O)N1CCC[C@@H](c2ccc(-n3cc4cccc(C(N)=O)c4n3)cc2)C1)C(=O)NCC(=O)O)C(C)C)[C@@H](C)O)[C@@H](C)O` [Example 48] (H-AEQNPIYWARYADWLFTTPLLLLDLALLVDADEC(X17)G-OH; N-terminus and C-terminus assumed), the IC50 was 2.1 nM.
For `CC[C@H](C)[C@H](NC(=O)[C@@H]1CCCN1C(=O)[C@H](CC(N)=O)NC(=O)[C@H](CCC(N)=O)NC(=O)[C@H](CCC(=O)O)NC(=O)[C@H](C)N)C(=O)N[C@@H](Cc1ccc(O)cc1)C(=O)N[C@@H](Cc1c[nH]c2ccccc12)C(=O)N[C@@H](C)C(=O)N[C@@H](CCCNC(=N)N)C(=O)N[C@@H](Cc1ccc(O)cc1)C(=O)N[C@@H](C)C(=O)N[C@@H](CC(=O)O)C(=O)N[C@@H](Cc1c[nH]c2ccccc12)C(=O)N[C@@H](CC(C)C)C(=O)N[C@@H](Cc1ccccc1)C(=O)N[C@H](C(=O)N[C@H](C(=O)N1CCC[C@H]1C(=O)N[C@@H](CC(C)C)C(=O)N[C@@H](CC(C)C)C(=O)N[C@@H](CC(C)C)C(=O)N[C@@H](CC(C)C)C(=O)N[C@@H](CC(=O)O)C(=O)N[C@@H](CC(C)C)C(=O)N[C@@H](C)C(=O)N[C@@H](CC(C)C)C(=O)N[C@@H](CC(C)C)C(=O)N[C@H](C(=O)N[C@@H](CC(=O)O)C(=O)N[C@@H](C)C(=O)N[C@@H](CC(=O)O)C(=O)N[C@@H](CCC(=O)O)C(=O)N[C@@H](CSSCCOC(=O)N1CCC[C@@H](c2ccc(-n3cc4cccc(C(N)=O)c4n3)cc2)C1)C(=O)NCC(=O)O)C(C)C)[C@@H](C)O)[C@@H](C)O` [Example 49] (H-AEQNPIYWARYADWLFTTPLLLLDLALLVDADEC(X21)G-OH; N-terminus and C-terminus assumed) the value was 26 nM; for `CC(C)C[C@H](NC(=O)[C@H](Cc1ccc(O)cc1)NC(=O)[C@H](C)NC(=O)[C@H](CCCNC(=N)N)NC(=O)[C@H](Cc1c[nH]c2ccccc12)NC(=O)[C@@H]1CCCN1C(=O)[C@H](CC(N)=O)NC(=O)[C@H](CCC(N)=O)NC(=O)[C@H](CC(=O)O)NC(=O)[C@H](CC(=O)O)NC(=O)[C@H](C)N)C(=O)N[C@@H](CC(=O)O)C(=O)N[C@@H](CC(C)C)C(=O)N[C@@H](CC(C)C)C(=O)N[C@@H](Cc1ccccc1)C(=O)N1CCC[C@H]1C(=O)N[C@H](C(=O)N[C@@H](CC(=O)O)C(=O)N[C@H](C(=O)N[C@@H](CC(C)C)C(=O)N[C@@H](CC(C)C)C(=O)N[C@@H](CC(C)C)C(=O)N[C@@H](CC(=O)O)C(=O)N[C@@H](CC(C)C)C(=O)N[C@@H](CC(C)C)C(=O)N[C@@H](Cc1c[nH]c2ccccc12)C(=O)N[C@@H](CC(=O)O)C(=O)N[C@@H](C)C(=O)N[C@@H](CC(=O)O)C(=O)N[C@@H](CCC(=O)O)C(=O)N[C@@H](CSS[C@H](C)COC(=O)N1CCC[C@]1(C)c1nc2c(C(N)=O)cccc2[nH]1)C(=O)NCC(=O)O)[C@@H](C)O)[C@@H](C)O` [Example 51], 0.9 nM; for `CC(C)C[C@H](NC(=O)[C@H](Cc1ccc(O)cc1)NC(=O)[C@H](C)NC(=O)[C@H](CCCNC(=N)N)NC(=O)[C@H](Cc1c[nH]c2ccccc12)NC(=O)[C@@H]1CCCN1C(=O)[C@H](CC(N)=O)NC(=O)[C@H](CCC(N)=O)NC(=O)[C@H](CC(=O)O)NC(=O)[C@H](CC(=O)O)NC(=O)[C@H](C)N)C(=O)N[C@@H](CC(=O)O)C(=O)N[C@@H](CC(C)C)C(=O)N[C@@H](CC(C)C)C(=O)N[C@@H](Cc1ccccc1)C(=O)N1CCC[C@H]1C(=O)N[C@H](C(=O)N[C@@H](CC(=O)O)C(=O)N[C@H](C(=O)N[C@@H](CC(C)C)C(=O)N[C@@H](CC(C)C)C(=O)N[C@@H](CC(C)C)C(=O)N[C@@H](CC(=O)O)C(=O)N[C@@H](CC(C)C)C(=O)N[C@@H](CC(C)C)C(=O)N[C@@H](Cc1c[nH]c2ccccc12)C(=O)N[C@@H](CC(=O)O)C(=O)N[C@@H](C)C(=O)N[C@@H](CC(=O)O)C(=O)N[C@@H](CCC(=O)O)C(=O)N[C@@H](CSS[C@@H](C)COC(=O)N1CCC[C@]1(C)c1nc2c(C(N)=O)cccc2[nH]1)C(=O)NCC(=O)O)[C@@H](C)O)[C@@H](C)O` [Example 52], 1.1 nM.

Values taken from patent publication US12427157B2, “Methods for treatment of diseases involving acidic or hypoxic diseased tissues” (Cybrexa 1, Inc., priority 2018, dated 2025).
